Laboratory results: ChEMBL document CHEMBL1933053, “Efficient microwave-assisted synthesis, antibacterial activity and high fluorescence of 5 benzimidazolyl-2'-deoxyuridines” (2012)
In brackets after ≈: the same amount, converted by molar mass. Activity calls are given as the source filed them. No cut-off for these calls is given here.

How the values were obtained:
[1] = system: Human immunodeficiency virus; assay: Antiviral activity against HIV infected in human MT4 cells assessed as inhibition of virus-induced cytopathogenicity by MTT assay; format: functional, organism-based
Pseudomonas aeruginosa = assay: Antibacterial activity against Pseudomonas aeruginosa ATCC 27853 after overnight incubation by twofold broth dilution technique; format: functional
Escherichia coli = assay: Antibacterial activity against Escherichia coli ATCC 25922 after overnight incubation by twofold broth dilution technique; format: functional
Streptococcus pneumoniae [2] = assay: Antibacterial activity against Streptococcus pneumoniae expressing PenR gene after overnight incubation by twofold broth dilution technique in presence of 2.5% blood; format: functional
Haemophilus influenzae = assay: Antibacterial activity against Haemophilus influenzae ATCC 31517 after overnight incubation by twofold broth dilution technique; format: functional
Streptococcus pneumoniae [3] = assay: Antibacterial activity against Streptococcus pneumoniae expressing PenR gene after overnight incubation by twofold broth dilution technique; format: functional
Enterococcus faecium = assay: Antibacterial activity against Enterococcus faecium expressing VanA gene after overnight incubation by twofold broth dilution technique; format: functional
Streptococcus pneumoniae [4] = assay: Antibacterial activity against Streptococcus pneumoniae ATCC 49619 after overnight incubation by twofold broth dilution technique; format: functional
Enterococcus faecalis = assay: Antibacterial activity against Enterococcus faecalis ATCC 29212 expressing VanS gene after overnight incubation by twofold broth dilution technique; format: functional
Staphylococcus aureus [5] = assay: Antibacterial activity against Staphylococcus aureus after overnight incubation by twofold broth dilution technique; format: functional
Staphylococcus aureus [6] = assay: Antibacterial activity against Staphylococcus aureus ATCC 25923 after overnight incubation by twofold broth dilution technique in presence of 50% human serum; format: functional
Staphylococcus aureus [7] = assay: Antibacterial activity against Staphylococcus aureus ATCC 25923 after overnight incubation by twofold broth dilution technique; format: functional
Staphylococcus aureus [8] = assay: Antibacterial activity against Staphylococcus aureus ATCC 25923 after overnight incubation by twofold broth dilution technique in presence of 10% human serum; format: functional
Staphylococcus aureus [9] = assay: Antibacterial activity against Staphylococcus aureus ATCC 13709 after overnight incubation by twofold broth dilution technique; format: functional
Staphylococcus aureus [10] = assay: Antibacterial activity against methicillin-resistant Staphylococcus aureus after overnight incubation by twofold broth dilution technique; format: functional

O=c1[nH]c(=O)n([C@H]2C[C@H](O)[C@@H](CO)O2)cc1-c1nc2ccccc2[nH]1
inhibition [1]: inactive | MIC (Pseudomonas aeruginosa): > 64 µg/mL | MIC (Escherichia coli): > 64 µg/mL | MIC (Streptococcus pneumoniae [2]): > 64 µg/mL | MIC (Haemophilus influenzae): > 64 µg/mL | MIC (Streptococcus pneumoniae [3]): > 64 µg/mL | MIC (Enterococcus faecium): > 64 µg/mL | MIC (Streptococcus pneumoniae [4]): > 64 µg/mL | MIC (Enterococcus faecalis): > 64 µg/mL | MIC (Staphylococcus aureus [5]): > 64 µg/mL | MIC (Staphylococcus aureus [6]): > 64 µg/mL | MIC (Staphylococcus aureus [7]): > 64 µg/mL | MIC (Staphylococcus aureus [8]): > 64 µg/mL | MIC (Staphylococcus aureus [9]): > 64 µg/mL

O=c1[nH]c(=O)n([C@H]2C[C@H](O)[C@@H](CO)O2)cc1-c1nc2ccc(F)cc2[nH]1
inhibition [1]: inactive | MIC (Pseudomonas aeruginosa): > 64 µg/mL | MIC (Escherichia coli): > 64 µg/mL | MIC (Streptococcus pneumoniae [2]): > 64 µg/mL | MIC (Haemophilus influenzae): > 64 µg/mL | MIC (Streptococcus pneumoniae [3]): > 64 µg/mL | MIC (Enterococcus faecium): > 64 µg/mL | MIC (Streptococcus pneumoniae [4]): > 64 µg/mL | MIC (Enterococcus faecalis): > 64 µg/mL | MIC (Staphylococcus aureus [5]): > 64 µg/mL | MIC (Staphylococcus aureus [6]): > 64 µg/mL | MIC (Staphylococcus aureus [7]): > 64 µg/mL | MIC (Staphylococcus aureus [8]): > 64 µg/mL | MIC (Staphylococcus aureus [9]): > 64 µg/mL

O=C(O)c1cn(C2CC2)c2cc(N3CCNCC3)c(F)cc2c1=O [CIPROFLOXACIN]
MIC (Escherichia coli): ≤ 0.03 µg/mL | MIC (Haemophilus influenzae): ≤ 0.03 µg/mL | MIC (Enterococcus faecium): 16 µg/mL (≈ 48.3 µM) | MIC (Streptococcus pneumoniae [4]): 1 µg/mL (≈ 3.02 µM) | MIC (Enterococcus faecalis): 0.5 µg/mL (≈ 1.51 µM) | MIC (Staphylococcus aureus [5]): 0.12 µg/mL (≈ 0.362 µM) | MIC (Staphylococcus aureus [10]): 8 µg/mL (≈ 24.1 µM) | MIC (Staphylococcus aureus [6]): 0.5 µg/mL | MIC (Staphylococcus aureus [7]): 0.25 µg/mL (≈ 0.754 µM) | MIC (Staphylococcus aureus [8]): 0.25 µg/mL | MIC (Staphylococcus aureus [9]): 0.12 µg/mL (≈ 0.362 µM)

Cc1ccc2nc(-c3cn([C@H]4C[C@H](O)[C@@H](CO)O4)c(=O)[nH]c3=O)[nH]c2c1
inhibition [1]: inactive | MIC (Pseudomonas aeruginosa): > 64 µg/mL | MIC (Escherichia coli): > 64 µg/mL | MIC (Streptococcus pneumoniae [2]): > 64 µg/mL | MIC (Haemophilus influenzae): > 64 µg/mL | MIC (Streptococcus pneumoniae [3]): > 64 µg/mL | MIC (Enterococcus faecium): > 64 µg/mL | MIC (Streptococcus pneumoniae [4]): > 64 µg/mL | MIC (Enterococcus faecalis): > 64 µg/mL | MIC (Staphylococcus aureus [5]): > 64 µg/mL | MIC (Staphylococcus aureus [6]): > 64 µg/mL | MIC (Staphylococcus aureus [7]): > 64 µg/mL | MIC (Staphylococcus aureus [8]): > 64 µg/mL | MIC (Staphylococcus aureus [9]): > 64 µg/mL

COc1ccc2nc(-c3cn([C@H]4C[C@H](O)[C@@H](CO)O4)c(=O)[nH]c3=O)[nH]c2c1
inhibition [1]: inactive | MIC (Pseudomonas aeruginosa): > 64 µg/mL | MIC (Escherichia coli): > 64 µg/mL | MIC (Streptococcus pneumoniae [2]): > 64 µg/mL | MIC (Haemophilus influenzae): > 64 µg/mL | MIC (Streptococcus pneumoniae [3]): > 64 µg/mL | MIC (Enterococcus faecium): > 64 µg/mL | MIC (Streptococcus pneumoniae [4]): > 64 µg/mL | MIC (Enterococcus faecalis): > 64 µg/mL | MIC (Staphylococcus aureus [5]): > 64 µg/mL | MIC (Staphylococcus aureus [6]): > 64 µg/mL | MIC (Staphylococcus aureus [7]): > 64 µg/mL | MIC (Staphylococcus aureus [8]): > 64 µg/mL | MIC (Staphylococcus aureus [9]): > 64 µg/mL

O=c1[nH]c(=O)n([C@H]2C[C@H](O)[C@@H](CO)O2)cc1-c1nc2cc3ccccc3cc2[nH]1
inhibition [1]: inactive | MIC (Pseudomonas aeruginosa): > 64 µg/mL | MIC (Escherichia coli): > 64 µg/mL | MIC (Streptococcus pneumoniae [2]): > 64 µg/mL | MIC (Haemophilus influenzae): > 64 µg/mL | MIC (Streptococcus pneumoniae [3]): > 64 µg/mL | MIC (Enterococcus faecium): > 64 µg/mL | MIC (Streptococcus pneumoniae [4]): > 64 µg/mL | MIC (Enterococcus faecalis): > 64 µg/mL | MIC (Staphylococcus aureus [5]): > 64 µg/mL | MIC (Staphylococcus aureus [6]): > 64 µg/mL | MIC (Staphylococcus aureus [7]): > 64 µg/mL | MIC (Staphylococcus aureus [8]): > 64 µg/mL | MIC (Staphylococcus aureus [9]): > 64 µg/mL

O=c1[nH]c(=O)n([C@H]2C[C@H](O)[C@@H](CO)O2)cc1-c1nc2c3ccccc3c3ccccc3c2[nH]1
inhibition [1]: inactive | MIC (Pseudomonas aeruginosa): > 64 µg/mL | MIC (Escherichia coli): > 64 µg/mL | MIC (Streptococcus pneumoniae [2]): > 64 µg/mL | MIC (Haemophilus influenzae): > 64 µg/mL | MIC (Streptococcus pneumoniae [3]): > 64 µg/mL | MIC (Enterococcus faecium): > 64 µg/mL | MIC (Streptococcus pneumoniae [4]): > 64 µg/mL | MIC (Enterococcus faecalis): > 64 µg/mL | MIC (Staphylococcus aureus [5]): > 64 µg/mL | MIC (Staphylococcus aureus [6]): > 64 µg/mL | MIC (Staphylococcus aureus [7]): > 64 µg/mL | MIC (Staphylococcus aureus [8]): > 64 µg/mL | MIC (Staphylococcus aureus [9]): > 64 µg/mL

O=c1[nH]c(=O)n([C@H]2C[C@H](O)[C@@H](CO)O2)cc1-c1nc2cc(C(F)(F)F)cc(Cl)c2[nH]1
inhibition [1]: inactive | MIC (Pseudomonas aeruginosa): > 64 µg/mL | MIC (Escherichia coli): > 64 µg/mL | MIC (Streptococcus pneumoniae [2]): 16 µg/mL | MIC (Haemophilus influenzae): > 64 µg/mL | MIC (Streptococcus pneumoniae [3]): 4 µg/mL (≈ 8.95 µM) | MIC (Enterococcus faecium): 1 µg/mL (≈ 2.24 µM) | MIC (Streptococcus pneumoniae [4]): 4 µg/mL (≈ 8.95 µM) | MIC (Enterococcus faecalis): 2 µg/mL (≈ 4.48 µM) | MIC (Staphylococcus aureus [5]): 2 µg/mL (≈ 4.48 µM) | MIC (Staphylococcus aureus [10]): 2 µg/mL (≈ 4.48 µM) | MIC (Staphylococcus aureus [6]): > 64 µg/mL | MIC (Staphylococcus aureus [7]): 2 µg/mL (≈ 4.48 µM) | MIC (Staphylococcus aureus [8]): > 64 µg/mL | MIC (Staphylococcus aureus [9]): 2 µg/mL (≈ 4.48 µM)

CC(=O)NC[C@H]1CN(c2ccc(N3CCOCC3)c(F)c2)C(=O)O1 [LINEZOLID]
MIC (Pseudomonas aeruginosa): > 32 µg/mL | MIC (Escherichia coli): > 32 µg/mL | MIC (Streptococcus pneumoniae [2]): 0.25 µg/mL | MIC (Haemophilus influenzae): 16 µg/mL (≈ 47.4 µM) | MIC (Enterococcus faecium): 0.5 µg/mL (≈ 1.48 µM) | MIC (Staphylococcus aureus [5]): 1 µg/mL (≈ 2.96 µM) | MIC (Staphylococcus aureus [10]): 1 µg/mL (≈ 2.96 µM) | MIC (Staphylococcus aureus [7]): 1 µg/mL (≈ 2.96 µM) | MIC (Staphylococcus aureus [8]): 1 µg/mL | MIC (Staphylococcus aureus [9]): 1 µg/mL (≈ 2.96 µM)

O=c1[nH]c(=O)n([C@H]2C[C@H](O)[C@@H](CO)O2)cc1-c1nc2ccc(C(F)(F)F)cc2[nH]1
inhibition [1]: inactive | MIC (Pseudomonas aeruginosa): > 64 µg/mL | MIC (Escherichia coli): > 64 µg/mL | MIC (Streptococcus pneumoniae [2]): 64 µg/mL | MIC (Haemophilus influenzae): 4 µg/mL (≈ 9.7 µM) | MIC (Streptococcus pneumoniae [3]): 32 µg/mL (≈ 77.6 µM) | MIC (Enterococcus faecium): 64 µg/mL (≈ 155 µM) | MIC (Streptococcus pneumoniae [4]): 64 µg/mL (≈ 155 µM) | MIC (Enterococcus faecalis): > 64 µg/mL | MIC (Staphylococcus aureus [5]): > 64 µg/mL | MIC (Staphylococcus aureus [6]): > 64 µg/mL | MIC (Staphylococcus aureus [7]): > 64 µg/mL | MIC (Staphylococcus aureus [8]): > 64 µg/mL | MIC (Staphylococcus aureus [9]): > 64 µg/mL
